Each structure is given as a SMILES string.

Human CYP17, sequence (P05093 whole entry): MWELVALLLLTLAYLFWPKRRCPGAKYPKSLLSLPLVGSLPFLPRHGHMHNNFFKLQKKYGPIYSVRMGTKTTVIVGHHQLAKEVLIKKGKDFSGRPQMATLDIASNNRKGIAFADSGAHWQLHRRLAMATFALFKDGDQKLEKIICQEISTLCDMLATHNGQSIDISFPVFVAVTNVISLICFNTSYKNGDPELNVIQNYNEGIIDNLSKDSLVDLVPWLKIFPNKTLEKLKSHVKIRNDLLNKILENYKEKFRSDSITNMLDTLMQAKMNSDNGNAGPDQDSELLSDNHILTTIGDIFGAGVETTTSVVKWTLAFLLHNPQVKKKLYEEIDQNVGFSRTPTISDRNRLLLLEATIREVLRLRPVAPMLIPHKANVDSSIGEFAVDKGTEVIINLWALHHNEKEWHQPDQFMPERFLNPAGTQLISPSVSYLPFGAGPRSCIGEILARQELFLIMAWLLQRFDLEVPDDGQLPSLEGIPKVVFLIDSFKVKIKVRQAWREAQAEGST

The first assay relates to testosterone levels. Description: 1-Day Cyno PK/PD Study. It counts as in vivo. Conditions: cynomolgus monkeys; single oral dose of 5 mg/Kg in 80% PEG-400/water; blood samples over a 24 hour period (FIG. 1). The protocol:
1-Day Cyno PK/PD Study Protocol
Animals: All procedures involving animals and their care were conducted in conformity with the guidelines that are in compliance with the Bristol-Myers Squibb Institutional Animal Care and Use Committee. Fully mature male cynomolgus monkeys (>4 yrs of age; 5-6 kg) were from an in-house colony. All the monkeys used had chronically implanted femoral vein access ports. For oral studies, all animals were fasted overnight prior to dosing and were fed 4 hr after dosing. All animals had free access to water and were conscious throughout the study.
Drug: For all oral pharmacokinetic studies in cynomolgus monkeys, the tested compound was formulated in polyethylene glycol (PEG 400): water (80:20, v:v) at concentrations of 1-5 mg/mL. […]
Sampling: Blood samples were collected from the femoral port, at 15, 30, and 45 min, and 1, 2, 4, 6, 8, 12, 24, 30, and 48 hr after oral administration. […] The plasma fraction was immediately separated by centrifugation (14,000 rpm, 10 min, 4° C.), frozen on dry ice, and stored at −20° C. until the samples were analyzed.
Analysis of Tested Compound: Plasma samples were thawed and treated with two volumes of acetonitrile containing internal standard. After centrifugation to remove precipitated proteins, an aliquot of supernatant was analyzed by LC/MS/MS. […]
Consider `COc1cc(NS(C)(=O)=O)ccc1-c1cnccc1C` [Example 217, N-(3-methoxy-4-(4-methyl-3-pyridinyl)phenyl)methanesulfonamide], for which the testosterone levels result is on record as “reduced”.

The target of a further assay is Human CYP17 (Homo sapiens (Human), UniProt P05093). Description: CYP17 Total SPA Assay. Conditions: microsomes from HEK2 cells stably transfected with CYP17; 3H-Pregnenolone 1 uM; NADPH 2 mM; 45 minutes at room temperature. Type of assay: biochemical. On the procedure:
CYP17 Total SPA Assay The assays were performed in U-bottom 384-well optiplates. […] The reaction was initiated by the combination of the microsomes and substrates in wells containing compound. The reaction was incubated at room temperature for 45 minutes and terminated by adding 7.5 μl of 0.2N HCl to each well. […] The plate was sealed and incubated overnight with shaking at 4° C. The beads were allowed to settle in the plate for 1 hour and the plate read on a TOPCOUNT® (Perkin-Elmer) plate reader. […] The final concentration of reagents in the assays are NADPH, 2 mM; 3H-Pregnenolone, 1 uM; microsomes, 1.25 ug/ml; […] Dose response curves were generated to determine the concentration required inhibiting 50% of enzyme activity (IC50). Compounds were dissolved at 10 mM in dimethylsulfoxide (DMSO) and evaluated at eleven concentrations, each in duplicate. IC50 values were derived by non-linear regression analysis. Table 22 below lists the IC50 values for the following Examples of this invention measured in the Total CYP17 SPA Assay hereinabove.
As for `COc1cc(NS(C)(=O)=O)ccc1-c1cnccc1C` [Example 217, N-(3-methoxy-4-(4-methyl-3-pyridinyl)phenyl)methanesulfonamide], the IC50 (commonly the concentration needed to halve the response being measured) was 2.5 nM. `COc1cc(NS(=O)(=O)C2CC2)ccc1-c1cncc2ccccc12` [Example 159, N-(4-(isoquinolin-4-yl)-3-methoxyphenyl)cyclopropanesulfonamide]: the IC50 was determined as 6.2 nM.

In the case of `COc1cc(NS(C)(=O)=O)ccc1-c1cncnc1C(C)C` [Example 220, N-(4-(4-isopropylpyrimidin-5-yl)-3-methoxyphenyl) methanesulfonamide], the IC50 was 103 nM. Consider `COc1cc(NS(C)(=O)=O)ccc1-c1cncnc1OC` [Example 245], for which the IC50 was found to be 57 nM. Same read-out and setting: with `CCCS(=O)(=O)Nc1ccc(-c2cncnc2C)c(OC)c1` [Example 163, N-(3-methoxy-4-(4-methylpyrimidin-5-yl)phenyl)propane-1-sulfonamide] the figure was 134 nM; with `CS(=O)(=O)Nc1ccc(-c2cncc3ccccc23)c(OC(F)(F)F)c1` [Example 228, N-(4-(isoquinolin-4-yl)-3-(trifluoromethoxy)phenyl)methanesulfonamide], 3.2 nM. `COc1ccncc1-c1ccc(NS(C)(=O)=O)cc1OCC(F)(F)F` [Example 233, N-(4-(4-methoxypyridin-3-yl)-3-(2,2,2-trifluoroethoxy)phenyl)methanesulfonamide]: the IC50 was determined as 56 nM. On the same count and under the same terms, with `COc1cc(NS(C)(=O)=O)ccc1-c1cncnc1C` [Example 161, N-(3-methoxy-4-(4-methylpyrimidin-5-yl)phenyl)methanesulfonamide] the figure was 112 nM. As for `Cc1ccncc1-c1ccc(NS(C)(=O)=O)cc1C(F)(F)F` [Example 240, N-(4-(4-methylpyridin-3-yl)-3-(trifluoromethyl)phenyl)methanesulfonamide], the IC50 is 26 nM.

In the case of `CS(=O)(=O)Nc1ccc(-c2cnccc2Cl)c(OCCF)c1` [Example 236, N-(4-(4-chloropyridin-3-yl)-3-(2-fluoroethoxy)phenyl)methanesulfonamide], the IC50 was found to be 174 nM. Same read-out and setting: with `COc1cc(NS(=O)(=O)Cc2ccccc2)ccc1-c1cncnc1C` [Example 168, N-(3-methoxy-4-(4-methylpyrimidin-5-yl)phenyl)-1-phenylmethanesulfonamide] the figure was 9.6 nM; with `CCc1ncncc1-c1ccc(NS(C)(=O)=O)cc1OC` [Example 218, N-(4-(4-ethylpyrimidin-5-yl)-3-methoxyphenyl) methanesulfonamide], 49 nM; with `COc1cc(NS(C)(=O)=O)ccc1-c1cncc2ccccc12` [Example 142, N-(4-(isoquinolin-4-yl)-3-methoxyphenyl)methanesulfonamide], 6.6 nM. Same read-out and setting: the value for `COc1ccc(S(=O)(=O)Nc2ccc(-c3cncnc3C)c(OC)c2)cc1` [Example 170, 4-methoxy-N-(3-methoxy-4-(4-methylpyrimidin-5-yl)phenyl)benzenesulfonamide] was 56 nM. For `Cc1ccncc1-c1ccc(NS(C)(=O)=O)cc1OCC(F)F` [Example 23, N-(3-(2,2-difluoroethoxy)-4-(4-methyl-3-pyridinyl)phenyl)methane sulfonamide], the IC50 is 32 nM. Turning to `COc1cc(NS(=O)(=O)c2ccccn2)ccc1-c1cncc2ccccc12` [Example 160, N-(4-(isoquinolin-4-yl)-3-methoxyphenyl)pyridine-2-sulfonamide], the IC50 was determined as 6 nM. The same measure, in the same setting: with `COc1cc(NS(=O)(=O)c2cccc3ccccc23)ccc1-c1cncc2ccccc12` [Example 144, N-(4-(isoquinolin-4-yl)-3-methoxyphenyl)naphthalene-1-sulfonamide] the figure was 11 nM; with `Cc1cc(NS(C)(=O)=O)ccc1-c1cnccc1Cl` [Example 195, N-(4-(4-chloro-3-pyridinyl)-3-methylphenyl)methanesulfonamide], 52 nM; with `Cc1cc(NS(C)(=O)=O)ccc1-c1cnccc1-c1ccccc1` [Example 12, N-(3-methyl-4-(4-phenyl-3-pyridinyl)phenyl)methanesulfonamide], 104 nM.

Regarding `CS(=O)(=O)Nc1ccc(-c2cncc3ccccc23)c(C(F)(F)F)c1` [Example 241, N-(4-(isoquinolin-4-yl)-3-(trifluoromethyl)phenyl)methanesulfonamide], the IC50 stood at 48 nM. Regarding `COc1cc(NS(C)(=O)=O)ccc1-c1cnccc1C1CC1` [Example 225, N-(4-(4-cyclopropylpyridin-3-yl)-3-methoxyphenyl)methanesulfonamide], the IC50 came to 2.1 nM.

`COc1cc(NS(=O)(=O)c2cccc3cccnc23)ccc1-c1cncnc1C` [Example 176, N-(3-methoxy-4-(4-methylpyrimidin-5-yl)phenyl)quinoline-8-sulfonamide]: the IC50 was 118 nM. With `COc1cc(NS(=O)(=O)c2cccc3cccnc23)ccc1-c1cncc2ccccc12` [Example 154, N-(4-(isoquinolin-4-yl)-3-methoxyphenyl)quinoline-8-sulfonamide], the IC50 came out at 27 nM. For `COc1ccc(S(=O)(=O)Nc2ccc(-c3cncc4ccccc34)c(OC)c2)cc1` [Example 147, N-(4-(isoquinolin-4-yl)-3-methoxyphenyl)-4-methoxybenzenesulfonamide], the IC50 amounted to 2.7 nM. Take `COc1cc(NS(=O)(=O)c2ccccc2)ccc1-c1cncc2ccccc12` [Example 143, N-(4-(isoquinolin-4-yl)-3-methoxyphenyl)benzenesulfonamide]: the IC50 worked out at 2.9 nM. Same read-out and setting: the value for `COc1cc(NS(=O)(=O)CCc2ccccc2)ccc1-c1cncnc1C` [Example 169, N-(3-methoxy-4-(4-methylpyrimidin-5-yl)phenyl)-2-phenylethanesulfonamide] was 119 nM; that for `COc1cc(NS(=O)(=O)C2CC2)ccc1-c1cncnc1C` [Example 162, N-(3-methoxy-4-(4-methylpyrimidin-5-yl)phenyl)cyclopropanesulfonamide] was 169 nM.

The record behind these values is US8916553B2 (Bristol-Myers Squibb Company, priority 2010, dated 2014).
